From US20130336889A1, “NANOPARTICLE AND METHOD FOR DETECTING OR TREATING A TUMOR USING THE SAME” (NATIONAL TAIWAN UNIVERSITY, priority 2012, published 2013) come the findings set out here.

Series [1] in a line: Absorbance spectra (UV-vis). The class given is physicochemical.
In another series the test system is HCT-116 cells. Briefly: Cytotoxicity by MTT assay without or with NIR irradiation. It is filed as cell-based, human. The conditions noted are these: 2.5 μg/mL. Here is the method: Cell viability was determined with the MTT assay and a scanning multiwell ELISA reader (Microplate Autoreader EL311, Bio-Tek Instruments Inc., Winooski, Vt., USA). The fraction of live cells was calculated by dividing the mean optical density obtained from treated cells by the mean optical density from untreated control cells.
Background: Tetrazolium assays rely on reduction of a dye to a coloured formazan, in cell work by metabolically active cells.

As to `CCCN1C(=CC=C2CCCC(C=CC3=[N+](CCC)c4ccccc4C3(C)C)=C2Cl)C(C)(C)c2ccccc21.[I-]` [free IR-780 iodide, IR-780 iodide], the “maximum wavelength (λmax) of absorption” value in series [1] (IR-780 dye diluted in THF, IR-780 micelles in PBS) is “about 795 nm”. Moreover, the “λmax of absorption peak” value in series [1] (aggregated in aqueous buffer, broad and blue-shifted) is recorded as 775 nm. For the same compound, the excess cells killed in the series with HCT-116 cells (808 nm 0.6 W/cm^2 NIR irradiation 10 min) worked out at 0.3%; in the series with HCT-116 cells (808 nm 0.6 W/cm^2 NIR irradiation 20 min), 26.8%.
